Test results as given in patent US20250195498A1, “INHIBITOR OF CELLULAR PURINE NUCLEOTIDE SALVAGE PATHWAY ENZYME FOR USE IN THE TREATMENT AND/OR PREVENTION OF HELICOBACTER PYLORI INFECTION AND/OR DISEASE ASSOCIATED WITH SUCH INFECTION AND PHARMACEUTICAL COMPOSITION COMPRISING THE SAME” (UNIWERSYTET WARSZAWSKI, priority 2022, published 2025).
In brackets after ≈: the same amount, converted by molar mass. Several values for one entry are separate records, joined by “and”; a condition that tells them apart may be missing. Identical values can stand only once. Like-named read-outs stand apart in the source and are kept apart here.

Assays:
[1] = tested on: H. pylori strain 26695; assay: Growth curve method / MIC in liquid culture, strain 26695; assay type: cell-based, Helicobacter pylori; conditions: strain 26695; for MIC: read-out: MIC; for % inhibition of H. pylori cell cultures at maximum inhibitor solubility: at maximum solubility in 3.5% DMSO; for growth inhibition: 200 μM, partially precipitated
Description: (§1) The representative PNP inhibitor from H. pylori included in this study was immucillin A. The experiment was conducted using the growth curve method (two-fold serial dilutions in liquid medium). The tested H. pylori strains were cultured in Petri dishes with BHI solid medium supplemented with 10% FBS and 1% H. pylori Selective Supplement antibiotic kit, in anaerostats under microaerophilic conditions (5% 02, 10% CO2, 85% N2) at 37° C. for 3 days. Liquid culture of H. pylori was conducted overnight with shaking at 37° C. under microaerophilic conditions in BHI medium supplemented with 10% FBS and 1% H. pylori Selective Supplement antibiotic kit. Subsequently, for the essential experiment of determining the minimum inhibitory concentration (MIC), double strengthened liquid BHI medium was prepared, that is, supplemented with 20% FBS and a 2% set of H. pylori Selective Supplement antibiotics.
(§2) Bacterial proliferation inhibition experiments were carried out in 24-deep-well 2 ml flat-bottomed plates at a solution volume per well of 0.5 ml. In a single well, double strengthened (relative to the concentration planned for testing) solutions of the test inhibitor and double strengthened liquid BHI medium inoculated with H. pylori (10^4-10^5 CFU/ml in the final volume in the well, corresponding to the optical density of the culture OD600=0.05) were mixed together in a 1:1 ratio.
(§3) Kanamycin at a concentration of 25 μg/ml (Irie et al., 1997) was used as a positive control, while Mili-Q deionized water and BHI medium not inoculated with bacteria were used as negative controls. Plates were shaken at 37° C., under microaerophilic conditions. […] After 24 hours, the OD600 of samples containing the negative control, i.e. with Mili-Q deionized water, was about 1.2-1.4, corresponding to a bacterial concentration of about […].
(§4) In addition, the method proposed by Knezevic et al. (2018) was used to check whether the observed OD600 was from live bacterial cells. For this purpose, an equal volume of Christensen's double strength urea broth (that is, containing twice the concentration of all components) was added to the wells after incubation, and the plates were additionally incubated for 4 hours in an oxygen atmosphere at 37° C. During incubation, in wells with urease produced by live bacteria, urea is converted to ammonia and carbon dioxide, changing the pH of the solution and thus the colour of the phenol red indicator contained in the medium (from orange to purple).
(§5) All experiments were performed in triplicate.
The experiments were carried out using the growth curve method as described in Example 3, and the results obtained for two of the compounds tested are shown in FIG. 5. As the water solubility of the compounds tested, with the exception of 2,6-diCl-Pu, is relatively poor, two experiments were carried out: the first with the maximum concentration possible under the experimental conditions in aqueous solution with a small admixture of DMSO, and the second with higher concentrations that led to partial precipitation of the compound.
The antibacterial activity of two compounds, mefloquine (in the form of hydrochloride) and quinine, described in the literature as potent in vitro inhibitors of the PNP enzyme from Plasmodium falciparum (Dziekan et al., 2019), was tested. Using a two-fold serial dilution method in liquid medium (as described in Example 3), the MIC values for mefloquine and quinine were determined against clinical H. pylori strains resistant to MTZ, CLR and MTZ+CLR (M26, M91, M92 and M93), as well as the reference H. pylori strain 26695. Four clinical H. pylori strains isolated from adults, from primary infections (the subjects had never previously been treated against H. pylori infection) were tested. These strains come from the collection of the Department of Microbiology of the Medical University of Wroclaw and were obtained due to collaboration with Prof. Grażyna Gościniak, MD, PhD. […]

[2] = molecular target: T1, PNP from H. pylori strain 26695 (Helicobacter pylori, UniProt P56463); assay: Inhibition of PNP from H. pylori, spectrophotometric phosphorolysis assay; assay type: biochemical
T1 construct: made in house; host or cells: E. coli
T1 sequence (P56463 whole entry): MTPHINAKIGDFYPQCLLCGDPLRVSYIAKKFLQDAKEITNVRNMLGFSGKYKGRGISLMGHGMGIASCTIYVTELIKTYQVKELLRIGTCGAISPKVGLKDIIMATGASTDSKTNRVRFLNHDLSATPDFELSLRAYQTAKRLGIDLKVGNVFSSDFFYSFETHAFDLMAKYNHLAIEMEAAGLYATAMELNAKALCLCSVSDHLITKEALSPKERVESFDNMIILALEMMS
Text: The specific activity of PNP is usually determined using inosine as a substrate, in an assay in which the phosphorolysis product, hypoxanthine, is oxidized to uric acid in a reaction catalysed by xanthine oxidase. However, in the inhibition assay of PNP from H. pylori strain 26695, 7-methylguanosine (m^7Guo) and guanosine (Guo) were used as nucleoside substrates to avoid potential inhibition of xanthine oxidase by the test compounds. Phosphorolysis of these two substrates can be observed using a direct spectrophotometric method in a known manner.
Enzymatic activity was studied in a quartz cuvette with an optical path length of 1 cm or 0.5 cm. The absorbance of the reaction mixture, at the observation wavelength, never exceeded 1.2. The reaction volume was 1 ml or 1.4 ml in cuvettes with optical path lengths of 1 cm and 0.5 cm, respectively. The reaction mixture contained 50 mM Hepes/NaOH buffer, pH 7.0, 50 mM phosphate buffer, pH 7.0 (unless otherwise indicated), nucleoside substrate and inhibitor (with the latter not added to the reference/control reactions). Reactions were usually initiated by adding the enzyme to a cuvette containing the other reaction components. However, in cases where possible slow formation of an inhibitor-enzyme complex was checked, a second variant was also used involving incubation of the enzyme in a reaction mixture containing the inhibitor but lacking the substrate, 7-methylguanosine, and initiation of the reaction by adding this substrate.
In order to determine the inhibition constants and determine the molecular mechanism of inhibition, equations describing different mechanisms of inhibition were fitted to the obtained experimental data. GraphPad Prism 8 program was used. The model best describing the obtained data was selected based on the sum of squares of deviations using the F test for models with different number of parameters and the Akaike criterion (AIC) for models with the same number of parameters.
The following equations were used to describe competitive inhibition, characterized by the inhibition constant Kic, [1], uncompetitive, characterized by the inhibition constant Kiu, [2], non-competitive, characterized by the inhibition constant Kin, [3], and mixed, characterized by the inhibition constants Kiu and Kic, [4] (Segel, 1993):
The last equation can also be represented in the following form, as used by GraphPad Prism software, where Kiu=alpha Kic:
Immucillin A was chosen as the most promising one for potential pharmacological use in combating H. pylori infection because immucillin A has an amino substituent at position 6 of the 9-dazapurine ring, while PNP found in the human body requires a substituent at this position having electron-pairs-hydrogen bond acceptors, such as a substituent in the form of a keto group, to strongly bind the ligand. According to the invention, it is therefore believed that immucillin A will not interact with the host PNP, and thus allow selective inhibition of the PNP from H. pylori. Using the methods described above, the effect of immucillin A on the rate of the 7-methylguanosine (m^7Guo) phosphorolysis reaction catalysed by PNP from H. pylori was examined (FIG. 1). Since it is known (Schramm, 2018) that immucillins form a strongly bound complex with the enzyme relatively slowly, reactions were initiated by adding the substrate, m^7Guo, to a cuvette in which the enzyme was incubated with the inhibitor, as described in Example 1.
Data analysis was also performed as described in this Example. The range of substrate concentrations tested was 10-200 μM or 10-280 μM (shown in FIG. 4), and the range of inhibitor concentrations was chosen according to the observed degree of inhibition of the reaction, in order to obtain a significant degree of inhibition that allows determination of the inhibition mechanism and determination of inhibition constants (see FIG. 4). […]

[3] = tested on: H. pylori strain M92 (CLR resistant); assay: Growth curve method / MIC, resistant strain M92; assay type: cell-based, Helicobacter pylori; conditions: strain M92, CLR resistant
Description: as §1, §2, §3, §4, §5
(§6) The antibacterial activity of two compounds, mefloquine (in the form of hydrochloride) and quinine, described in the literature as potent in vitro inhibitors of the PNP enzyme from Plasmodium falciparum (Dziekan et al., 2019), was tested. Using a two-fold serial dilution method in liquid medium (as described in Example 3), the MIC values for mefloquine and quinine were determined against clinical H. pylori strains resistant to MTZ, CLR and MTZ+CLR (M26, M91, M92 and M93), as well as the reference H. pylori strain 26695. Four clinical H. pylori strains isolated from adults, from primary infections (the subjects had never previously been treated against H. pylori infection) were tested. These strains come from the collection of the Department of Microbiology of the Medical University of Wroclaw and were obtained due to collaboration with Prof. Grażyna Gościniak, MD, PhD. The tested compounds belong to organic substances and are soluble in DMSO. The maximum tested concentration of quinine in H. pylori culture was 0.56 mM, and that of mefloquine was 2.25 mM. […] On each occasion, the effect of DMSO alone on the growth of the H. pylori strains tested was also checked. […] Kanamycin was used as a positive control and Mili-Q deionised water as a negative control. All experiments were carried out in triplicate. […]

[4] = tested on: H. pylori strain M26 (MTZ + CLR resistant); assay: Growth curve method / MIC, resistant strain M26; assay type: cell-based, Helicobacter pylori; conditions: strain M26, MTZ + CLR resistant
Description: as §1, §2, §3, §4, §5, §6

[5] = tested on: H. pylori strain M91 (MTZ + CLR resistant); assay: Growth curve method / MIC, resistant strain M91; assay type: cell-based, Helicobacter pylori; conditions: strain M91, MTZ + CLR resistant
Description: as §1, §2, §3, §4, §5, §6

[6] = tested on: H. pylori strain M93 (MTZ resistant); assay: Growth curve method / MIC, resistant strain M93; assay type: cell-based, Helicobacter pylori; conditions: strain M93, MTZ resistant
Description: as §1, §2, §3, §4, §5, §6

[7] = 7-methylguanosine substrate, 25° C., pH 7.0, 50 mM phosphate, mixed type model, read-out: Kic
[8] = 7-methylguanosine substrate, 25° C., pH 7.0, 50 mM phosphate, mixed type model, read-out: Kiu
[9] = 7-methylguanosine substrate, 25° C., pH 7.0, 50 mM phosphate, non-competitive model, read-out: Kin
[10] = 7-methylguanosine substrate, mixed type model
[11] = 7-methylguanosine substrate, 25° C., pH 7.0, 50 mM phosphate, uncompetitive model, read-out: Kiu
[12] = Helicobacter pylori, inhibitor partially precipitated, actual dissolved concentration lower
[13] = Helicobacter pylori, read-out: MIC
[14] = listed as Mefloquine (hydrochloride)
[15] = listed as Mefloquine (hydrochloride), read-out: MIC

| SMILES | MIC ([1]; Helicobacter pylori) | % inhibition of H. pylori cell cultures at maximum inhibitor solubility [1] [%] | Ki [2, 7] [µM] | Ki [2, 8] [µM] | Ki [2, 9] [µM] | alpha = Kiu/Kic [2, 10] | further results |
| --- | --- | --- | --- | --- | --- | --- | --- |
| Clc1nc(Cl)c2[nH]cnc2n1 [2,6-diCl-Pu, 2,6-dichloropurine] | 473 µg/mL and 2500 µM | 93 | – | – | – | – | – |
| Clc1nc(Cl)c2[nH]cnc2n1 [2,6-dichloropurine] | – | – | 20 ± 4.9 | 23.5 ± 3.5 | 22.2 ± 1.4 | 1.17 ± 0.44 | – |
| c1ccc(CSc2ncnc3nc[nH]c23)cc1 [6-benzylthiopurine] | – | – | 7.5 ± 1.3 | 8.1 ± 0.7 | 7.9 ± 0.4 | 1.07 ± 0.27 | – |
| Clc1nc(OCc2ccccc2)c2[nH]cnc2n1 [6BnO-2Cl-Pu, 6-benzyloxy-2-chloropurine] | – | 35 | 18.3 ± 7.3 | 4.6 ± 0.5 | 6.5 ± 0.4 | 0.25 ± 0.12 | inhibition at 350 µM ([1]; Helicobacter pylori, 350 μM (91 μg/ml), inhibitor partially precipitated, read-out: % inhibition of H. pylori cell cultures): 75%; Ki [2, 11]: 3.8 ± 0.3 µM |
| Clc1nc(SCc2ccccc2)c2[nH]cnc2n1 [6BnS-2Cl-Pu, 6-benzylthio-2-chloropurine] | – | 92 | 13.2 ± 10.7 | 2.1 ± 0.3 | – | 0.16 ± 0.15 | MIC [1, 12]: 69 µg/mL and 250 µM; Ki [2, 11]: 1.8 ± 0.2 µM |
| OC[C@H]1O[C@@H](n2cnc3c(SCc4ccccc4)nc(Cl)nc32)C[C@@H]1O [6BnS-2Cl-Pu-9dr, 2-chloro-6-benzylthiopurine-2′-deoxy-9-ribofuranoside] | – | 5 | 6.2 ± 2.4 | 2.9 ± 0.5 | – | 0.47 ± 0.24 | growth inhibition [1]: complete growth inhibition; alpha = Kiu/Kic ([2]; guanosine as a substrate, mixed type model): 0.16 ± 0.08; Ki ([2]; guanosine as a substrate, mixed type model, read-out: Kic): 12.6 ± 5.7 µM; Ki ([2]; guanosine as a substrate, mixed type model, read-out: Kiu): 2 ± 0.2 µM |
| c1ccc(CSc2ncnc3nc[nH]c23)cc1 [6BnS-Pu, 6-benzylthiopurine] | – | 83 | – | – | – | – | MIC [1, 12]: 48 µg/mL and 200 µM; growth inhibition [1]: Complete inhibition |
| NC[C@H]1O[C@H](O[C@H]2[C@H](O)[C@@H](O[C@H]3O[C@H](CO)[C@@H](O)[C@H](N)[C@H]3O)[C@H](N)C[C@@H]2N)[C@H](O)[C@@H](O)[C@@H]1O [Kanamycin, kanamycin] | – | – | – | – | – | – | inhibition at 52 µM ([1]; Helicobacter pylori, kanamycin 25 μg/ml (52 μM), positive control, read-out: % inhibition of H. pylori cell cultures): 92 to 96% |
| Nc1ncnc2c([C@@H]3N[C@H](CO)C(O)[C@@H]3O)c[nH]c12 (some centres unmarked) [immucillin A] | 80 µM (≈ 21.2 µg/mL) | – | – | – | – | – | Ki [2]: 0.0013 ± 0.0002 µM |
| OC(c1cc(C(F)(F)F)nc2c(C(F)(F)F)cccc12)C1CCCCN1 (centres unmarked) [mefloquine] | 50 µM and 21 µg/mL | – | – | – | – | – | MIC [3, 13]: 40 µM and 17 µg/mL; MIC [3, 14]: (17 μg/ml); MIC [3, 15]: 40 µM (≈ 15.1 µg/mL); MIC [4, 13]: 35 µM and 14.5 µg/mL; MIC [4, 14]: (14.5 μg/ml); MIC [4, 15]: 35 µM; MIC [5, 13]: 50 µM and 21 µg/mL; MIC [5, 14]: (21 μg/ml); MIC [5, 15]: 50 µM; MIC [6, 13]: 35 µM and 14.5 µg/mL; MIC [6, 14]: (14.5 μg/ml); MIC [6, 15]: 35 µM (≈ 13.2 µg/mL) |
